Experimental data taken from PMC9234962, “Optimization of Peptide Linker-Based Fluorescent Ligands for the Histamine H1 Receptor” (Journal of Medicinal Chemistry, 2022).
Square brackets hold non-standard residues; d marks the D form. Peptide text beside a SMILES is read from it. * marks the point of attachment. Propanoyl(3-Pip(4-O-2-BnPh)) = O=C(CCN1CCC(Oc2ccccc2Cc2ccccc2)CC1)*

Target: Nluc-H1R (Homo sapiens, UniProt P35367)
Assay: NanoBRET competition binding assay (displacement of 1) on Nluc-H1R expressing HEK293T cells
Conditions: displacement of 1 (25 nM, KD = 8 nM), whole HEK293T cells, Cheng–Prusoff; for pKi: mean ± SEM, three experiments

Chain of Nluc-H1R (P35367 whole entry): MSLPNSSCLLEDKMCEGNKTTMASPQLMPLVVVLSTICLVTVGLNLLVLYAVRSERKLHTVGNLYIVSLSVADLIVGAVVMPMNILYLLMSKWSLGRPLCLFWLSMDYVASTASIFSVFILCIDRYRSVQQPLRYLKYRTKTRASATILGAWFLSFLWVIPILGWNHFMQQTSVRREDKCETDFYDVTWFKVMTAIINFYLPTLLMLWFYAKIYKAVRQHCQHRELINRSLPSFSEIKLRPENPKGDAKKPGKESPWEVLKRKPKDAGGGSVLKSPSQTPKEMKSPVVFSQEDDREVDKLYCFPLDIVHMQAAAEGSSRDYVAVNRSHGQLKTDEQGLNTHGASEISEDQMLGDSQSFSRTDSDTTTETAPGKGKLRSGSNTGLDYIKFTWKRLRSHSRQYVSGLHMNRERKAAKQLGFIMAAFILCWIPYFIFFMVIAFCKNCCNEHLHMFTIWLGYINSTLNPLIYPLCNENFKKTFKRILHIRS

SMILES	Ki [nM]	pKi
C[C@H](NC(=O)CCN1CCC(Oc2ccccc2Cc2ccccc2)CC1)C(=O)N[C@@H](C)C(=O)N[C@@H](C)C(=O)N[C@H](Cc1ccccc1)C(N)=O [Compound 8a, (S)-N-((R)-1-Amino-1-oxo-3-phenylpropan-2-yl)-2-((S)-2-((S)-2-(3-(4-(2-benzylphenoxy)piperidin-1-yl)-propana-mido)propanamido)propanamido)propanamide] ({Propanoyl(3-Pip(4-O-2-BnPh))}-AAA[dF]-NH2)	912	6.04 ± 0.16
C[C@H](NC(=O)CNC(=O)CCN1CCC(Oc2ccccc2Cc2ccccc2)CC1)C(=O)N[C@@H](C)C(=O)N[C@H](Cc1ccccc1)C(N)=O [Compound 8b, (S)-N-((R)-1-Amino-1-oxo-3-phenylpropan-2-yl)-2-((S)-2-(2-(3-(4-(2-benzylphenoxy)piperidin-1-yl)propanamido)acetamido)propanamido)propanamide] ({Propanoyl(3-Pip(4-O-2-BnPh))}-GAA[dF]-NH2)	513	6.29 ± 0.21
CC(C)[C@H](NC(=O)CCN1CCC(Oc2ccccc2Cc2ccccc2)CC1)C(=O)N[C@@H](C)C(=O)N[C@@H](C)C(=O)N[C@H](Cc1ccccc1)C(N)=O [Compound 8c, (S)-N-((S)-1-(((S)-1-(((R)-1-Amino-1-oxo-3-phenylpropan-2-yl)amino)-1-oxopropan-2-yl)amino)-1-oxopropan-2-yl)-2-(3-(4-(2-benzylphenoxy)piperidin-1-yl)propanamido)-3-methylbutanamide] ({Propanoyl(3-Pip(4-O-2-BnPh))}-VAA[dF]-NH2)	158	6.80 ± 0.12
C[C@H](NC(=O)[C@H](C)NC(=O)[C@H](Cc1ccccc1)NC(=O)CCN1CCC(Oc2ccccc2Cc2ccccc2)CC1)C(=O)N[C@H](Cc1ccccc1)C(N)=O [Compound 8d, (S)-N-((S)-1-(((S)-1-(((R)-1-Amino-1-oxo-3-phenylpropan-2-yl)amino)-1-oxopropan-2-yl)amino)-1-oxopropan-2-yl)-2-(3-(4-(2-benzylphenoxy)piperidin-1-yl)propanamido)-3-phenylpropanamide] ({Propanoyl(3-Pip(4-O-2-BnPh))}-FAA[dF]-NH2)	1320	5.88 ± 0.21
C[C@H](NC(=O)[C@H](C)NC(=O)[C@H](CO)NC(=O)CCN1CCC(Oc2ccccc2Cc2ccccc2)CC1)C(=O)N[C@H](Cc1ccccc1)C(N)=O [Compound 8f, (S)-N-((S)-1-(((S)-1-(((R)-1-Amino-1-oxo-3-phenylpropan-2-yl)amino)-1-oxopropan-2-yl)amino)-1-oxopropan-2-yl)-2-(3-(4-(2-benzylphenoxy)piperidin-1-yl)propanamido)-3-hydroxypropanamide] ({Propanoyl(3-Pip(4-O-2-BnPh))}-SAA[dF]-NH2)	407	6.39 ± 0.15
C[C@H](NC(=O)[C@H](C)NC(=O)[C@H](Cc1cnc[nH]1)NC(=O)CCN1CCC(Oc2ccccc2Cc2ccccc2)CC1)C(=O)N[C@H](Cc1ccccc1)C(N)=O [Compound 8h, (S)-N-((S)-1-(((S)-1-(((R)-1-Amino-1-oxo-3-phenylpropan-2-yl)amino)-1-oxopropan-2-yl)amino)-1-oxopropan-2-yl)-2-(3-(4-(2-benzylphenoxy)piperidin-1-yl)propanamido)-3-(1H-imidazol-5-yl)propanamide] ({Propanoyl(3-Pip(4-O-2-BnPh))}-HAA[dF]-NH2)	933	6.03 ± 0.13
C[C@H](NC(=O)[C@H](C)NC(=O)[C@H](CCCCN)NC(=O)CCN1CCC(Oc2ccccc2Cc2ccccc2)CC1)C(=O)N[C@H](Cc1ccccc1)C(N)=O [Compound 8i, (S)-6-Amino-N-((S)-1-(((S)-1-(((R)-1-amino-1-oxo-3-phenylpropan-2-yl)amino)-1-oxopropan-2-yl)-amino)-1-oxopropan-2-yl)-2-(3-(4-(2-benzylphenoxy)piperidin-1-yl)-propanamido)hexanamide] ({Propanoyl(3-Pip(4-O-2-BnPh))}-KAA[dF]-NH2)	1620	5.79 ± 0.18
CC(C)[C@H](NC(=O)CCN1CCC(Oc2ccccc2Cc2ccccc2)CC1)C(=O)NCC(=O)N[C@@H](C)C(=O)N[C@H](Cc1ccccc1)C(N)=O [Compound 9a, (S)-N-(2-(((S)-1-(((R)-1-Amino-1-oxo-3-phenylpropan-2-yl)amino)-1-oxopropan-2-yl)amino)-2-oxoethyl)-2-(3-(4-(2-benzylphenoxy)piperidin-1-yl)propanamido)-3-methylbutanamide] ({Propanoyl(3-Pip(4-O-2-BnPh))}-VGA[dF]-NH2)	501	6.30 ± 0.07
CC(C)[C@H](NC(=O)CCN1CCC(Oc2ccccc2Cc2ccccc2)CC1)C(=O)N[C@@H](Cc1ccccc1)C(=O)N[C@@H](C)C(=O)N[C@H](Cc1ccccc1)C(N)=O [Compound 9c, (S)-N-((S)-1-(((S)-1-(((R)-1-Amino-1-oxo-3-phenylpropan-2-yl)amino)-1-oxopropan-2-yl)amino)-1-oxo-3-phenylpropan-2-yl)-2-(3-(4-(2-benzylphenoxy)piperidin-1-yl)-propanamido)-3-methylbutanamide] ({Propanoyl(3-Pip(4-O-2-BnPh))}-VFA[dF]-NH2)	794	6.10 ± 0.20
CC(C)[C@H](NC(=O)CCN1CCC(Oc2ccccc2Cc2ccccc2)CC1)C(=O)N[C@@H](CO)C(=O)N[C@@H](C)C(=O)N[C@H](Cc1ccccc1)C(N)=O [Compound 9e, (S)-N-((S)-1-(((S)-1-(((R)-1-Amino-1-oxo-3-phenylpropan-2-yl)amino)-1-oxopropan-2-yl)amino)-3-hydroxy-1-oxo-propan-2-yl)-2-(3-(4-(2-benzylphenoxy)piperidin-1-yl)-propanamido)-3-methylbutanamide] ({Propanoyl(3-Pip(4-O-2-BnPh))}-VSA[dF]-NH2)	151	6.82 ± 0.06
CC(C)[C@H](NC(=O)CCN1CCC(Oc2ccccc2Cc2ccccc2)CC1)C(=O)N[C@@H](CC(N)=O)C(=O)N[C@@H](C)C(=O)N[C@H](Cc1ccccc1)C(N)=O [Compound 9f, (S)-N1-((S)-1-(((R)-1-Amino-1-oxo-3-phenylpropan-2-yl)amino)-1-oxopropan-2-yl)-2-((S)-2-(3-(4-(2-benzylphenoxy)piperidin-1-yl)propanamido)-3-methylbutanamido)succinamide] ({Propanoyl(3-Pip(4-O-2-BnPh))}-VNA[dF]-NH2)	832	6.08 ± 0.03
CC(C)[C@H](NC(=O)CCN1CCC(Oc2ccccc2Cc2ccccc2)CC1)C(=O)N[C@@H](Cc1cnc[nH]1)C(=O)N[C@@H](C)C(=O)N[C@H](Cc1ccccc1)C(N)=O [Compound 9g, (S)-N-((S)-1-(((S)-1-(((R)-1-Amino-1-oxo-3-phenylpropan-2-yl)amino)-1-oxopropan-2-yl)amino)-3-(1H-imidazol-5-yl)-1-oxopropan-2-yl)-2-(3-(4-(2-benzylphenoxy)piperidin-1-yl)propanamido)-3-methylbutanamide] ({Propanoyl(3-Pip(4-O-2-BnPh))}-VHA[dF]-NH2)	692	6.16 ± 0.06

Now from value to molecule:

Ki [nM]	pKi	SMILES
1180	5.93 ± 0.17	C[C@H](NC(=O)[C@H](C)NC(=O)[C@H](Cc1ccc(O)cc1)NC(=O)CCN1CCC(Oc2ccccc2Cc2ccccc2)CC1)C(=O)N[C@H](Cc1ccccc1)C(N)=O [Compound 8e, (S)-N-((S)-1-(((S)-1-(((R)-1-Amino-1-oxo-3-phenylpropan-2-yl)amino)-1-oxopropan-2-yl)amino)-1-oxopropan-2-yl)-2-(3-(4-(2-benzylphenoxy)piperidin-1-yl)propanamido)-3-(4-hydroxyphenyl)propanamide] ({Propanoyl(3-Pip(4-O-2-BnPh))}-YAA[dF]-NH2)
562	6.25 ± 0.20	C[C@H](NC(=O)[C@H](C)NC(=O)[C@H](CC(N)=O)NC(=O)CCN1CCC(Oc2ccccc2Cc2ccccc2)CC1)C(=O)N[C@H](Cc1ccccc1)C(N)=O [Compound 8g, (S)-N-((S)-1-(((S)-1-(((R)-1-Amino-1-oxo-3-phenylpropan-2-yl)amino)-1-oxopropan-2-yl)amino)-1-oxopropan-2-yl)-2-(3-(4-(2-benzylphenoxy)piperidin-1-yl)-propanamido)succinamide] ({Propanoyl(3-Pip(4-O-2-BnPh))}-NAA[dF]-NH2)
1020	5.99 ± 0.24	C[C@H](NC(=O)[C@H](C)NC(=O)[C@H](CC(=O)O)NC(=O)CCN1CCC(Oc2ccccc2Cc2ccccc2)CC1)C(=O)N[C@H](Cc1ccccc1)C(N)=O [Compound 8j, (S)-4-(((S)-1-(((S)-1-(((R)-1-Amino-1-oxo-3-phenylpropan-2-yl)amino)-1-oxopropan-2-yl)amino)-1-oxopropan-2-yl)amino)-3-(3-(4-(2-benzylphenoxy)piperidin-1-yl)propanamido)-4-oxobutanoic Acid] ({Propanoyl(3-Pip(4-O-2-BnPh))}-DAA[dF]-NH2)
372	6.43 ± 0.06	CC(C)[C@H](NC(=O)CCN1CCC(Oc2ccccc2Cc2ccccc2)CC1)C(=O)N[C@H](C(=O)N[C@@H](C)C(=O)N[C@H](Cc1ccccc1)C(N)=O)C(C)C [Compound 9b, (S)-N-((S)-1-(((R)-1-Amino-1-oxo-3-phenylpropan-2-yl)amino)-1-oxopropan-2-yl)-2-((S)-2-(3-(4-(2-benzylphenoxy)piperidin-1-yl)propanamido)-3-methylbutanamido)-3-methylbutanamide] ({Propanoyl(3-Pip(4-O-2-BnPh))}-VVA[dF]-NH2)
437	6.36 ± 0.04	CC(C)[C@H](NC(=O)CCN1CCC(Oc2ccccc2Cc2ccccc2)CC1)C(=O)N[C@@H](Cc1ccc(O)cc1)C(=O)N[C@@H](C)C(=O)N[C@H](Cc1ccccc1)C(N)=O [Compound 9d, (S)-N-((S)-1-(((S)-1-(((R)-1-Amino-1-oxo-3-phenylpropan-2-yl)amino)-1-oxopropan-2-yl)amino)-3-(4-hydroxyphenyl)-1-oxopropan-2-yl)-2-(3-(4-(2-benzylphenoxy)-piperidin-1-yl)propanamido)-3-methylbutanamide] ({Propanoyl(3-Pip(4-O-2-BnPh))}-VYA[dF]-NH2)
